# Data published in US20130079370A1, “Method for the Inhibition of Deubiquitinating Activity” (priority 2011, published 2013).
# Columns and labels:
# [1] = test system: HCT-116 Bcl2+ colon carcinoma xenografts; test: HCT-116 Bcl2+ colon carcinoma xenografts in nude mice, tumor onset; format: in vivo; details: 5 mg/kg 4-5 times weekly for 3 weeks; log-rank P=0.0136; vs vehicle
# Method: Animal experiments were conducted in full accordance with Swedish governmental statutory regulations on animal welfare under permission from local ethical committees. Animals were housed at a max of five per cage and provided with sterile water and food ad libitum. All mice were monitored and weighed daily. For the head and neck carcinoma model a 100-μl cell suspension containing 1×10^6 FaDu cells was injected subcutaneously into the right rear flank of the animals. After injection, tumor growth was measured daily with calipers and the tumor volume calculated by the formula L×W^2×0.44. When tumors had grown to a size of approximately 200 mm^3 (Day 0) mice were randomized to receive either vehicle (n=10) or b-AP15 5 mg/kg by subcutaneous injection s.c. (n=15) daily. […] Nineteen days after malignant cell injection all of the mice were killed and histopathological manifestations of liver, ovary (target organs for this model of tumor) were evaluated and compared between groups. […]
# SCID mice bearing FaDu human tumor xenografts were randomized at tumor take (200 mm^3) and treated by daily subcutaneous injection with either vehicle (n=10) or 5 mg kg^−1 b-AP15 (n=15) for 10 days. […] Mice were treated with vehicle (n=6) or 5 mg kg^−1 b-AP15 (n=6) 4-5 times weekly for 3 weeks and monitored for tumor onset (log-rank, P=0.0136, hazard ratio=7.9). […]
# [2] = test system: Lewis Lung Carcinoma (LLC) tumors; test: Syngenic lung carcinoma (LLC) model; format: in vivo, C57BL/6J mice; details: 5 mg/kg i.p.
# HCT116 cells = format: cell-based; details: human
# Excerpt: These findings indicate that high molecular weight ubiquitin substrate complexes accumulating as a result of DUB inhibition can generate strong cytotoxicity that is insensitive to Bcl-2 over-expression. [table]
compound,measurement,setting,value
"C=CC(=O)N1C/C(=C\c2ccc([N+](=O)[O-])cc2)C(=O)/C(=C/c2ccc([N+](=O)[O-])cc2)C1 [b-AP15, (3E,5E)-3,5-bis[(4-nitrophenyl)methylidene]-1-(prop-2-enoyl)piperidin-4-one]","hazard ratio, disease free survival",[1],7.9
same,difference in weight at the start and the endpoint between control and treated animals,[2],+2.1%
same,Fold induction DNAJB1 (Hsp40B1),HCT116 cells,22 fold
same,Fold induction HSPA1B,HCT116 cells,21 fold
